TGI and GI50 data for 15 compounds are collected here from PubChem BioAssay (NCI).

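48-hour exposure; five concentrations; linearly interpolated endpoints. At the GI50, growth is halved. TGI marks complete inhibition of growth.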

Among the test systems are HCT-15 colon; UACC-257 melanoma; RXF 393 renal; A498 renal; T-47D breast; UACC-62 melanoma; NCI-H460 lung; RPMI-8226 leukemia.
Common to all, as to assay: growth of human tumour cells (NCI), 48 h

With `C[C@H]1[C@H](C)CC[C@]2(C(=O)OC3OC(CO)C(O)C(O)C3O)CC[C@]3(C)C(=CC[C@@H]4[C@@]5(C)C[C@@H](O)[C@@H]6OC(=O)c7cc(O)c(O)c(O)c7-c7c(cc(O)c(O)c7O)C(=O)OC[C@@]6(CO)[C@@H]5CC[C@]43C)[C@H]12` (stereo partly drawn), the TGI in the assay with HCT-15 colon, in the assay on UACC-257 melanoma, in the assay with RXF 393 renal, in the assay on A498 renal, with T-47D breast and in the assay with UACC-62 melanoma was greater than 100 µM throughout. Also, the TGI in the assay with NCI-H460 lung and in the assay with RPMI-8226 leukemia was greater than 100 µM throughout.

As for `C[As+](C)(c1ccc(Br)c([N+](=O)[O-])c1)c1ccc(Br)c([N+](=O)[O-])c1.O=[N+]([O-])O`, the TGI with HCT-15 colon, with UACC-257 melanoma, with RXF 393 renal, in the assay on A498 renal, with T-47D breast and in the assay on UACC-62 melanoma was greater than 100 µM each time. Further, the TGI in the assay on NCI-H460 lung and in the assay with RPMI-8226 leukemia was greater than 100 µM each time.

Turning to `N#CCCN(CCC#N)c1ccc(C(N=Nc2ccccc2)=Nc2ccc(F)cc2)cc1`, the TGI with HCT-15 colon, in the assay with UACC-257 melanoma, in the assay on RXF 393 renal, in the assay on A498 renal, with T-47D breast and in the assay on UACC-62 melanoma was greater than 100 µM in each case. In addition, the TGI in the assay on NCI-H460 lung and in the assay on RPMI-8226 leukemia was greater than 100 µM in each case.

As to `CC(=O)/C(=N\Nc1ccc(Cl)cc1)C(C)=Nc1ccc(C)cc1`, the TGI was greater than 100 µM with HCT-15 colon; greater than 100 µM with UACC-257 melanoma; 95.8 µM in the assay with RXF 393 renal; 85.2 µM with A498 renal; greater than 100 µM in the assay on T-47D breast; greater than 100 µM in the assay with UACC-62 melanoma. This compound also returned a TGI in the assay with RPMI-8226 leukemia greater than 100 µM.

In the case of `COc1ccc([C@]23CCC4(OCC(C)(C)CO4)[C@H]4CON(O[C@H](O[C@@H]5CCCCC5C(C)(C)c5ccccc5)C2)[C@@H]43)cc1OC` (stereo partly drawn), the TGI with HCT-15 colon, in the assay on UACC-257 melanoma, in the assay on RXF 393 renal, in the assay on A498 renal, in the assay on T-47D breast and with UACC-62 melanoma was greater than 100 µM in each case. Moreover, the TGI with NCI-H460 lung and in the assay on RPMI-8226 leukemia was greater than 100 µM throughout.

On to `N#C/C(C(=O)NCc1ccccc1)=C(/N)N1CCCC1`, for which the TGI in the assay on HCT-15 colon, with UACC-257 melanoma, in the assay on RXF 393 renal, in the assay with A498 renal, in the assay with T-47D breast and in the assay on UACC-62 melanoma was greater than 100 µM in each case. In addition, the TGI in the assay on NCI-H460 lung and in the assay on RPMI-8226 leukemia was greater than 100 µM in each case.

Consider `COc1ccc(C2c3cc4c(cc3OC(Nc3ccccc3)C2C)OCO4)cc1` (stereo not drawn), for which the TGI in the assay on HCT-15 colon, with UACC-257 melanoma, with RXF 393 renal, with A498 renal, in the assay on T-47D breast and with UACC-62 melanoma was greater than 100 µM in each case. For the same compound, the TGI with NCI-H460 lung and in the assay on RPMI-8226 leukemia was greater than 100 µM throughout.

On to `O=C([C@H](O)[C@@H](O)c1cccc(Cl)c1)C12CC3CC(CC(C3)C1)C2`, for which the TGI is 6.62 µM with HCT-15 colon; 4.8 µM in the assay on UACC-257 melanoma; 3.98 µM with RXF 393 renal; 5.46 µM in the assay on A498 renal; 4.21 µM with T-47D breast; 3.32 µM in the assay on UACC-62 melanoma. The same compound showed a TGI with RPMI-8226 leukemia greater than 22.7 µM.

Turning to `NC(=O)C1CCN(Cc2c(Cl)c(Cl)c(CN3CCC(C(N)=O)CC3)c(Cl)c2Cl)CC1`, the TGI in the assay with HCT-15 colon is greater than 100 µM; in the assay with UACC-257 melanoma it was greater than 100 µM; in the assay with RXF 393 renal, greater than 100 µM; in the assay on A498 renal, 90.6 µM; with T-47D breast it was greater than 100 µM; with UACC-62 melanoma, greater than 100 µM. Besides, the TGI in the assay with NCI-H460 lung and in the assay with RPMI-8226 leukemia was greater than 100 µM throughout.

For `CCN(CC)CCCCNc1c2ccc(Cl)cc2nc2ccc(OC)cc12`, the GI50 with HCT-15 colon is 0.289 µM; in the assay on UACC-257 melanoma, 1.8 µM; in the assay with RXF 393 renal it was 0.381 µM; in the assay with A498 renal, 1.21 µM; in the assay with T-47D breast it was 1.22 µM; in the assay on UACC-62 melanoma, 1.69 µM. Further, the GI50 with NCI-H460 lung is 0.287 µM; in the assay with RPMI-8226 leukemia it was 0.566 µM. Also, the TGI with HCT-15 colon amounted to 1.62 µM; in the assay on UACC-257 melanoma it was 3.91 µM; in the assay on RXF 393 renal it was 1.78 µM; with A498 renal it was 2.52 µM; in the assay on T-47D breast, 4.54 µM; in the assay with UACC-62 melanoma it was 3.47 µM. The compound further came in with a TGI in the assay with RPMI-8226 leukemia of 4.2 µM.

In the case of `NC(=O)NN=C1Cc2ccccc2C1`, the TGI with HCT-15 colon, in the assay on UACC-257 melanoma, in the assay on RXF 393 renal, in the assay with A498 renal, in the assay on T-47D breast and with UACC-62 melanoma was greater than 100 µM each time. The TGI in the assay with NCI-H460 lung and with RPMI-8226 leukemia was greater than 100 µM each time.

`COc1ccc(-c2cc3cc(Cl)cc(Cl)c3oc2=O)cc1OC`: the TGI with HCT-15 colon was greater than 100 µM; in the assay with UACC-257 melanoma it was greater than 100 µM; with RXF 393 renal, 75.8 µM; in the assay on A498 renal, greater than 100 µM; in the assay with T-47D breast it was greater than 100 µM; with UACC-62 melanoma, greater than 100 µM. Also, the TGI in the assay on NCI-H460 lung and in the assay with RPMI-8226 leukemia was greater than 100 µM each time.

In the case of `CO[P@@]1(=O)O[C@@H](c2ccccc2)[C@H](O)[C@]1(O)c1ccccc1`, the TGI in the assay on HCT-15 colon, in the assay on UACC-257 melanoma, with RXF 393 renal, with A498 renal, with T-47D breast and in the assay on UACC-62 melanoma was greater than 100 µM throughout. For the same compound, the TGI in the assay on NCI-H460 lung and in the assay with RPMI-8226 leukemia was greater than 100 µM in each case.

For `Nc1c(N2CCOCC2)c(=O)nc2[nH]/c(=C\c3ccccc3O)c(=O)n12`, the TGI in the assay with HCT-15 colon, in the assay with UACC-257 melanoma, with RXF 393 renal, with A498 renal, with T-47D breast and in the assay on NCI-H460 lung was greater than 100 µM each time. Moreover, the TGI with RPMI-8226 leukemia stood at 77.3 µM.

Regarding `CC/C=N\N1C(N)=C(C#N)C(C#N)(C#N)C1CC` (stereo not drawn), the TGI with HCT-15 colon, with UACC-257 melanoma, with RXF 393 renal, in the assay on A498 renal, in the assay on T-47D breast and in the assay with UACC-62 melanoma was greater than 100 µM throughout. Besides, in the assay on RPMI-8226 leukemia, the TGI is greater than 100 µM.
